Columns and labels:
[1] = Control of coloration in an aqueous solution formulation containing sodium carbonate (absorbance 380 nm); format: physicochemical; conditions: for change in absorbance, just after dissolution / change in absorbance, preservation time 1 hr / change in absorbance, preservation time 2 hr / change in absorbance, preservation time 3 hr / change in absorbance, preservation time 4 hr / change in absorbance, preservation time 5 hr / change in absorbance, preservation time 6 hr: 25° C., 380 nm
Description: Multiple vials were prepared, and sodium carbonate, Compound A and imipenem in amounts indicated in Table 14 were weighed, respectively and each mixture was put in each vial. A physiological saline (100 ml) was added to each vial to be dissolved. Coloration (change of color) just after dissolution and when the solution was preserved at one hour intervals for 6 hours at 25° C. were measured by absorbency on Compound A and imipenem.
• Condition of measurement by spectrophotometer • cell: quartz 12.5 mm×12.5 mm×45 mm, capacity 3.5 ml • wavelength: 380 nm • measurement temperature: 25° C. • instrument: UV-2200A (Shimadzu)
The numbers described in columns of “just after dissolution” and each “preservation time” on Table 15 show values of change in absorbance just after dissolution when measured under the above conditions.

[2] = Control of coloration in an aqueous solution formulation containing sodium bicarbonate (absorbance 380 nm); format: physicochemical; conditions: for change in absorbance, just after dissolution / change in absorbance, preservation time 1 hr / change in absorbance, preservation time 2 hr / change in absorbance, preservation time 3 hr / change in absorbance, preservation time 4 hr / change in absorbance, preservation time 5 hr / change in absorbance, preservation time 6 hr: 25° C., 380 nm
Description: Multiple vials were prepared, and Compound A, imipenem and sodium bicarbonate in amounts indicated in Table 11 were weighed, respectively and each mixture was put in each vial. A physiological saline (100 ml) was added to each vial to be dissolved. In addition, to a vial containing Tienam® for infusion (0.5 g potency/vial) was added a physiological saline (100 ml). Coloration (change of color) just after dissolution and when the solution was preserved at one hour intervals for 6 hours at 25° C. were measured by absorbency.
• Conditions of measurement by spectrophotometer; • cell: quartz 12.5 mm×12.5 mm×45 mm, capacity 3.5 ml • wavelength: 380 nm • measurement temperature: 25° C. • instrument: UV-2200A (Shimadzu)
The numbers described in columns of “just after dissolution” and each “preservation time” on Table 12 show values of change in absorbance just after dissolution when measured under the above conditions.

[3] = 0.5 g/vial + sodium carbonate 0.0 mg/vial in physiological saline 100 ml
[4] = 0.5 g/vial + sodium carbonate 1.0 mg/vial in physiological saline 100 ml
[5] = 0.5 g/vial + sodium carbonate 1.5 mg/vial in physiological saline 100 ml
[6] = 0.5 g/vial + sodium carbonate 2.0 mg/vial in physiological saline 100 ml
[7] = 0.5 g/vial + sodium carbonate 2.5 mg/vial in physiological saline 100 ml
[8] = 0.5 g/vial + sodium carbonate 3.0 mg/vial in physiological saline 100 ml
[9] = 0.5 g/vial + sodium bicarbonate 0.0 mg/vial in physiological saline 100 ml
[10] = 0.5 g/vial + sodium bicarbonate 1.0 mg/vial in physiological saline 100 ml
[11] = 0.5 g/vial + sodium bicarbonate 2.5 mg/vial in physiological saline 100 ml
[12] = 0.5 g/vial + sodium bicarbonate 5.0 mg/vial in physiological saline 100 ml
[13] = 0.5 g/vial + sodium bicarbonate 10 mg/vial in physiological saline 100 ml
[14] = 0.5 g/vial + sodium bicarbonate 20 mg/vial in physiological saline 100 ml
[15] = 0.5 g/vial + sodium bicarbonate 50 mg/vial in physiological saline 100 ml

change in absorbance, just after dissolution [1, 3]: 0.00 Abs | change in absorbance, preservation time 1 hr [1, 3]: 0.01 Abs | change in absorbance, preservation time 2 hr [1, 3]: 0.03 Abs | change in absorbance, preservation time 3 hr [1, 3]: 0.05 Abs | change in absorbance, preservation time 4 hr [1, 3]: 0.07 Abs | change in absorbance, preservation time 5 hr [1, 3]: 0.11 Abs | change in absorbance, preservation time 6 hr [1, 3]: 0.13 Abs | change in absorbance, just after dissolution [1, 4]: 0.00 Abs | change in absorbance, preservation time 1 hr [1, 4]: 0.00 Abs | change in absorbance, preservation time 2 hr [1, 4]: 0.00 Abs | change in absorbance, preservation time 3 hr [1, 4]: 0.01 Abs | change in absorbance, preservation time 4 hr [1, 4]: 0.02 Abs | change in absorbance, preservation time 5 hr [1, 4]: 0.03 Abs | change in absorbance, preservation time 6 hr [1, 4]: 0.04 Abs | change in absorbance, just after dissolution [1, 5]: 0.00 Abs | change in absorbance, preservation time 1 hr [1, 5]: 0.00 Abs | change in absorbance, preservation time 2 hr [1, 5]: 0.00 Abs | change in absorbance, preservation time 3 hr [1, 5]: 0.00 Abs | change in absorbance, preservation time 4 hr [1, 5]: 0.00 Abs | change in absorbance, preservation time 5 hr [1, 5]: 0.01 Abs | change in absorbance, preservation time 6 hr [1, 5]: 0.02 Abs | change in absorbance, just after dissolution [1, 6]: 0.00 Abs | change in absorbance, preservation time 1 hr [1, 6]: 0.00 Abs | change in absorbance, preservation time 2 hr [1, 6]: 0.00 Abs | change in absorbance, preservation time 3 hr [1, 6]: 0.00 Abs | change in absorbance, preservation time 4 hr [1, 6]: 0.00 Abs | change in absorbance, preservation time 5 hr [1, 6]: 0.00 Abs | change in absorbance, preservation time 6 hr [1, 6]: 0.01 Abs | change in absorbance, just after dissolution [1, 7]: 0.00 Abs | change in absorbance, preservation time 1 hr [1, 7]: 0.00 Abs | change in absorbance, preservation time 2 hr [1, 7]: 0.00 Abs | change in absorbance, preservation time 3 hr [1, 7]: 0.00 Abs | change in absorbance, preservation time 4 hr [1, 7]: 0.00 Abs | change in absorbance, preservation time 5 hr [1, 7]: 0.00 Abs | change in absorbance, preservation time 6 hr [1, 7]: 0.00 Abs | change in absorbance, just after dissolution [1, 8]: 0.00 Abs | change in absorbance, preservation time 1 hr [1, 8]: 0.00 Abs | change in absorbance, preservation time 2 hr [1, 8]: 0.00 Abs | change in absorbance, preservation time 3 hr [1, 8]: 0.00 Abs | change in absorbance, preservation time 4 hr [1, 8]: 0.00 Abs | change in absorbance, preservation time 5 hr [1, 8]: 0.00 Abs | change in absorbance, preservation time 6 hr [1, 8]: 0.00 Abs | suppression of coloration of the solution ([1]; at least 1.5 mg (0.003 part by weight) of sodium carbonate per 500 mg): observed | change in absorbance, just after dissolution [2, 9]: 0.00 Abs | change in absorbance, preservation time 1 hr [2, 9]: 0.01 Abs | change in absorbance, preservation time 2 hr [2, 9]: 0.03 Abs | change in absorbance, preservation time 3 hr [2, 9]: 0.05 Abs | change in absorbance, preservation time 4 hr [2, 9]: 0.07 Abs | change in absorbance, preservation time 5 hr [2, 9]: 0.11 Abs | change in absorbance, preservation time 6 hr [2, 9]: 0.13 Abs | change in absorbance, just after dissolution [2, 10]: 0.00 Abs | change in absorbance, preservation time 1 hr [2, 10]: 0.00 Abs | change in absorbance, preservation time 2 hr [2, 10]: 0.01 Abs | change in absorbance, preservation time 3 hr [2, 10]: 0.02 Abs | change in absorbance, preservation time 4 hr [2, 10]: 0.04 Abs | change in absorbance, preservation time 5 hr [2, 10]: 0.06 Abs | change in absorbance, preservation time 6 hr [2, 10]: 0.08 Abs | change in absorbance, just after dissolution [2, 11]: 0.00 Abs | change in absorbance, preservation time 1 hr [2, 11]: 0.00 Abs | change in absorbance, preservation time 2 hr [2, 11]: 0.00 Abs | change in absorbance, preservation time 3 hr [2, 11]: 0.00 Abs | change in absorbance, preservation time 4 hr [2, 11]: 0.00 Abs | change in absorbance, preservation time 5 hr [2, 11]: 0.01 Abs | change in absorbance, preservation time 6 hr [2, 11]: 0.01 Abs | change in absorbance, just after dissolution [2, 12]: 0.00 Abs | change in absorbance, preservation time 1 hr [2, 12]: 0.00 Abs | change in absorbance, preservation time 2 hr [2, 12]: 0.00 Abs | change in absorbance, preservation time 3 hr [2, 12]: 0.00 Abs | change in absorbance, preservation time 4 hr [2, 12]: 0.00 Abs | change in absorbance, preservation time 5 hr [2, 12]: 0.00 Abs | change in absorbance, preservation time 6 hr [2, 12]: 0.00 Abs | change in absorbance, just after dissolution [2, 13]: 0.00 Abs | change in absorbance, preservation time 1 hr [2, 13]: 0.00 Abs | change in absorbance, preservation time 2 hr [2, 13]: 0.00 Abs | change in absorbance, preservation time 3 hr [2, 13]: 0.00 Abs | change in absorbance, preservation time 4 hr [2, 13]: 0.00 Abs | change in absorbance, preservation time 5 hr [2, 13]: 0.00 Abs | change in absorbance, preservation time 6 hr [2, 13]: 0.00 Abs | change in absorbance, just after dissolution [2, 14]: 0.00 Abs | change in absorbance, preservation time 1 hr [2, 14]: 0.00 Abs | change in absorbance, preservation time 2 hr [2, 14]: 0.00 Abs | change in absorbance, preservation time 3 hr [2, 14]: 0.00 Abs | change in absorbance, preservation time 4 hr [2, 14]: 0.00 Abs | change in absorbance, preservation time 5 hr [2, 14]: 0.00 Abs | change in absorbance, preservation time 6 hr [2, 14]: 0.00 Abs | change in absorbance, just after dissolution [2, 15]: 0.00 Abs | change in absorbance, preservation time 1 hr [2, 15]: 0.00 Abs | change in absorbance, preservation time 2 hr [2, 15]: 0.00 Abs | change in absorbance, preservation time 3 hr [2, 15]: 0.00 Abs | change in absorbance, preservation time 4 hr [2, 15]: 0.00 Abs | change in absorbance, preservation time 5 hr [2, 15]: 0.00 Abs | change in absorbance, preservation time 6 hr [2, 15]: 0.00 Abs | suppression of coloration of the solution ([2]; at least 2.5 mg (0.005 part by weight) of sodium bicarbonate per 500 mg): observed
SMILES: C[C@H]1C=C(c2csc(SC3=C(C(=O)O)N4C(=O)[C@H]([C@@H](C)O)[C@H]4[C@H]3C)n2)CN1 [Compound A, (4R,5S,6S)-6-[(1R)-1-hydroxyethyl]-4-methyl-3-({4-[(5S)-5-methyl-2,5-dihydro-1H-pyrrol-3-yl]-1,3-thiazol-2-yl}sulfanyl)-7-oxo-1-azabicyclo[3.2.0]hept-2-ene-2-carboxylic acid]
coloration by the visual inspection compared with a solution just after dissolution ([1]; 1.5 mg additive per 500 mg (printed sodium bicarbonate; Table 15: sodium carbonate), 6 hours at 25° C.): coloration was not observed by the visual inspection | coloration by the visual inspection compared with a solution just after dissolution ([2]; sodium bicarbonate 2.5 mg per 500 mg, physiological saline, 6 hours at 25° C.): coloration was not observed by the visual inspection
